Structures are written as SMILES.

Experimental findings from patent publication US20250163038A1, “CBL-B MODULATORS AND USES THEREOF” (Nimbus Clio, Inc., priority 2021, published 2025) are described below.

For assay [1], the target named is Recombinant human Cbl-b (aa 36-427) (Homo sapiens, UniProt Q13191). As to the kind of experiment: Cbl-b Biochemical Assay (TR-FRET). Conditions: read-out: TR-FRET hCbl-b IC50.
For assay [2], the system named is Jurkat (clone E6-1) cells with NFAT luciferase reporter. As to the kind of experiment: Jurkat reporter assay (NFAT Luciferase). In kind it is cell-based. Conditions: Homo sapiens; Jurkat NFAT luciferase reporter cells, anti-CD3 stimulation, 6 hr; read-out: Jurkat NFAT EC50. (In general: A reporter such as luciferase makes a cellular process visible.)
The target in assay [3] is T1, Recombinant human c-Cbl (aa 47-435) (Homo sapiens, UniProt P22681).
T1 sequence (P22681 47-435): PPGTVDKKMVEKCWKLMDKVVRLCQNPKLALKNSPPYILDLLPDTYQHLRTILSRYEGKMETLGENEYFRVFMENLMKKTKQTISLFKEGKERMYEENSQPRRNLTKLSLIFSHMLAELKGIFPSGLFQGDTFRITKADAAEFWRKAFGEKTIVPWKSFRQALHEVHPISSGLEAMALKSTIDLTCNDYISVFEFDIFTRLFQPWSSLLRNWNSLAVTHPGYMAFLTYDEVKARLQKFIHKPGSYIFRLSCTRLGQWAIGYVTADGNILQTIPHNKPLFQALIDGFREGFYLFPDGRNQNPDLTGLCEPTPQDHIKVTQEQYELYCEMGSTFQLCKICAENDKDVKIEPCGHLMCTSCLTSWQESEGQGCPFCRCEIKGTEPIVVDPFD
As to the kind of experiment: c-Cbl Biochemical Assay (TR-FRET). Particulars: hc-Cbl Biochemical Assay (TR-FRET); read-out: TR-FRET hcCbl IC50. In general terms: TR-FRET usually uses a lanthanide donor and a delayed reading to cut background.

Sequence of Recombinant human Cbl-b (aa 36-427) (Q13191 36-427): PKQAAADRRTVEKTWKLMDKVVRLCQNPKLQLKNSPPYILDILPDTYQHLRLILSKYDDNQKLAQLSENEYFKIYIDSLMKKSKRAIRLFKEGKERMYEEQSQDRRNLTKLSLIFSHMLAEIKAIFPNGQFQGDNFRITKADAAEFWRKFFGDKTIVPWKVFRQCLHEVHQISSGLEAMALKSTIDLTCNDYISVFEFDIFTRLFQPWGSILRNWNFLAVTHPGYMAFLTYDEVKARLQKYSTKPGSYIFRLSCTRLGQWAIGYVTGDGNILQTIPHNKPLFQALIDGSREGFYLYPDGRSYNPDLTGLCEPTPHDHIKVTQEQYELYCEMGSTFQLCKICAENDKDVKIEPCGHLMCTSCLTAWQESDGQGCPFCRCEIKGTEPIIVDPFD

Usually IC50 stands for the point on the concentration scale where inhibition reaches its midpoint. A word on the EC50: it is the concentration that produces a half-maximal response. As for `CC[C@H](O)CNCc1cc(C(F)(F)F)c2oc(-c3cccc(-c4ccc(F)cc4-c4nncn4C)c3)nc2c1` [DG-2, (S)-1-(((2-(4′-Fluoro-2′-(4-methyl-4H-1,2,4-triazol-3-yl)-[1,1′-biphenyl]-3-yl)-7-(trifluoromethyl)benzo[d]oxazol-5-yl)methyl)amino)butan-2-ol], the IC50 in assay [1] and in assay [3] was less than 200 nM each time. In addition, in assay [2], the EC50 is less than 200 nM.

Turning to `Cn1cnnc1-c1cc(F)ccc1-c1cccc(-c2nc3cc(CN[C@@H]4COC[C@@H]4O)cc(C(F)(F)F)c3o2)c1` [DH-2, (3R,4R)-4-(((2-(4′-Fluoro-2′-(4-methyl-4H-1,2,4-triazol-3-yl)-[1,1′-biphenyl]-3-yl)-7-(trifluoromethyl)benzo[d]oxazol-5-yl)methyl)amino)tetrahydrofuran-3-ol], the IC50 in assay [1] and in assay [3] was less than 200 nM each time. Also, the EC50 in assay [2] was less than 200 nM.

For the compound `Cn1cnnc1-c1cc(F)ccc1-c1cccc(-c2nc3cc(C(=O)NO)cc(C(F)(F)F)c3o2)c1` [DI-1, 2-(4′-Fluoro-2′-(4-methyl-4H-1,2,4-triazol-3-yl)-[1,1′-biphenyl]-3-yl)-N-hydroxy-7-(trifluoromethyl)benzo[d]oxazole-5-carboxamide], the half-inhibitory concentration (IC50) in assay [1] was less than 200 nM; in assay [3] it was 1000 to 10000 nM. Moreover, the EC50 in assay [2] was in the range of 10000 to 50000 nM.

`CON(C)C(=O)c1cc(C(F)(F)F)c2oc(-c3cccc(-c4ccc(F)cc4-c4nncn4C)c3)nc2c1` [DJ-2, 2-(4′-Fluoro-2′-(4-methyl-4H-1,2,4-triazol-3-yl)-[1,1′-biphenyl]-3-yl)-N-methoxy-N-methyl-7-(trifluoromethyl)benzo[d]oxazole-5-carboxamide]: the IC50 in assay [1] was less than 200 nM; in assay [3], 200 to 1000 nM. Also, the EC50 in assay [2] lay within 1000 to 10000 nM.

On to `Cn1cnnc1-c1cc(F)ccc1-c1cccc(-c2nc3cc(CNC[C@H](O)C(F)(F)F)cc(C(F)(F)F)c3o2)c1` [DM-2, (S)-1,1,1-Trifluoro-3-(((2-(4′-fluoro-2′-(4-methyl-4H-1,2,4-triazol-3-yl)-[1,1′-biphenyl]-3-yl)-7-(trifluoromethyl)benzo[d]oxazol-5-yl)methyl)amino)propan-2-ol], for which the IC50 in assay [1] and in assay [3] was less than 200 nM each time. Besides, the EC50 in assay [2] was less than 200 nM.

On to `Cn1cnnc1-c1cc(F)ccc1-c1cccc(-c2nc3cc(CNCC(C)(C)C#N)cc(C(F)(F)F)c3o2)c1` [DN-2, 3-(((2-(4′-fluoro-2′-(4-methyl-4H-1,2,4-triazol-3-yl)-[1,1′-biphenyl]-3-yl)-7-(trifluoromethyl)benzo[d]oxazol-5-yl)methyl)amino)-2,2-dimethylpropanenitrile], for which the concentration for half-maximal inhibition (IC50) in assay [1] and in assay [3] was less than 200 nM in each case. In addition, in assay [2], the EC50 was in the range of 200 to 1000 nM.

For `Cn1cnnc1-c1cc(F)ccc1-c1cccc(-c2nc3cc(CN[C@@H]4CCC[C@@]4(C)O)cc(C(F)(F)F)c3o2)c1` [DP-5, (1R,2R)-2-(((2-(4′-Fluoro-2′-(4-methyl-4H-1,2,4-triazol-3-yl)-[1,1′-biphenyl]-3-yl)-7-(trifluoromethyl)benzo[d]oxazol-5-yl)methyl)amino)-1-methylcyclopentan-1-ol], the IC50 in assay [1] and in assay [3] was less than 200 nM throughout. In addition, in assay [2], the EC50 was in the range of 200 to 1000 nM.

As for `Cn1cnnc1-c1cc(F)ccc1-c1cccc(-c2nc3cc(CN[C@@H]4CCC[C@]4(C)O)cc(C(F)(F)F)c3o2)c1` [DP-6, (1S,2R)-2-(((2-(4′-Fluoro-2′-(4-methyl-4H-1,2,4-triazol-3-yl)-[1,1′-biphenyl]-3-yl)-7-(trifluoromethyl)benzo[d]oxazol-5-yl)methyl)amino)-1-methylcyclopentan-1-ol], the IC50 in assay [1] and in assay [3] was less than 200 nM each time. Besides, the EC50 in assay [2] was less than 200 nM.

Take `Cn1cnnc1-c1cc(F)ccc1-c1cccc(-c2nc3cc(CNCC4(O)CCC4)ccc3o2)c1` [DQ-1, 1-((((2-(4′-Fluoro-2′-(4-methyl-4H-1,2,4-triazol-3-yl)-[1,1′-biphenyl]-3-yl)benzo[d]oxazol-5-yl)methyl)amino)methyl)cyclobutan-1-ol]: the IC50 in assay [1] and in assay [3] was less than 200 nM in each case. For the same compound, the EC50 in assay [2] was less than 200 nM.

Consider `Cn1cnnc1-c1cc(F)ccc1-c1cccc(-c2nc3cc(CN4CC[C@@H](C#N)C4)cc(C(F)(F)F)c3o2)c1` [DR-2, (R)-1-((2-(4′-Fluoro-2′-(4-methyl-4H-1,2,4-triazol-3-yl)-[1,1′-biphenyl]-3-yl)-7-(trifluoromethyl)benzo[d]oxazol-5-yl)methyl)pyrrolidine-3-carbonitrile], for which the IC50 in assay [1] and in assay [3] was less than 200 nM throughout. In addition, the 50% effective concentration (EC50) in assay [2] was in the range of 200 to 1000 nM.

Take `Cn1cnnc1-c1cc(F)ccc1-c1cccc(-c2nc3cc(CNC4CCCC4)cc(C(F)(F)F)c3o2)c1` [DS-2, N-((2-(4′-Fluoro-2′-(4-methyl-4H-1,2,4-triazol-3-yl)-[1,1′-biphenyl]-3-yl)-7-(trifluoromethyl)benzo[d]oxazol-5-yl)methyl)cyclopentanamine]: the IC50 in assay [1] and in assay [3] was less than 200 nM throughout. The EC50 in assay [2] is less than 200 nM.

Turning to `Cn1cnnc1-c1cc(F)ccc1-c1cccc(-c2nc3cc(CN[C@@H]4CC[C@@H]4O)cc(C(F)(F)F)c3o2)c1` [DU-2, (1S,2R)-2-(((2-(4′-Fluoro-2′-(4-methyl-4H-1,2,4-triazol-3-yl)-[1,1′-biphenyl]-3-yl)-7-(trifluoromethyl)benzo[d]oxazol-5-yl)methyl)amino)cyclobutan-1-ol], the IC50 in assay [1] and in assay [3] was less than 200 nM in each case. In addition, the EC50 in assay [2] is less than 200 nM.

Consider `Cn1cnnc1-c1cc(F)ccc1-c1cccc(-c2nc3cc(CNCC4CCCC4)cc(C(F)(F)F)c3o2)c1` [DV-2, 1-Cyclopentyl-N-((2-(4′-fluoro-2′-(4-methyl-4H-1,2,4-triazol-3-yl)-[1,1′-biphenyl]-3-yl)-7-(trifluoromethyl)benzo[d]oxazol-5-yl)methyl)methanamine], for which the IC50 in assay [1] and in assay [3] was less than 200 nM each time. Moreover, the EC50 in assay [2] is less than 200 nM.

As for `COc1cc(CO)cc2nc(-c3cccc(-c4ccc(F)cc4-c4nncn4C)c3)oc12` [DW-3, (2-(4′-Fluoro-2′-(4-methyl-4H-1,2,4-triazol-3-yl)-[1,1′-biphenyl]-3-yl)-7-methoxybenzo[d]oxazol-5-yl)methanol], the IC50 in assay [1] and in assay [3] was 1000 to 10000 nM throughout. Further, the EC50 in assay [2] is 10000 to 50000 nM.

For `COc1cc(CN[C@@H]2CCC[C@@H]2O)cc2nc(-c3cccc(-c4ccc(F)cc4-c4nncn4C)c3)oc12` [DX-2, (1S,2R)-2-(((2-(4′-Fluoro-2′-(4-methyl-4H-1,2,4-triazol-3-yl)-[1,1′-biphenyl]-3-yl)-7-methoxybenzo[d]oxazol-5-yl)methyl)amino)cyclopentan-1-ol], the IC50 in assay [1] and in assay [3] was less than 200 nM each time. Further, the EC50 in assay [2] was less than 200 nM.

In the case of `Cn1cnnc1-c1cc(F)ccc1-c1cccc(-c2nc3cc(CNCC4(C#N)CCOCC4)cc(C(F)(F)F)c3o2)c1` [DY-1, 4-((((2-(4′-Fluoro-2′-(4-methyl-4H-1,2,4-triazol-3-yl)-[1,1′-biphenyl]-3-yl)-7-(trifluoromethyl)benzo[d]oxazol-5-yl)methyl)amino)methyl)tetrahydro-2H-pyran-4-carbonitrile], the values for the concentration for half-maximal inhibition (IC50) in assay [1] and in assay [3] were less than 200 nM and 200 to 1000 nM, respectively. Further, in assay [2], the concentration for a half-maximal effect (EC50) lay in the range of 200 to 1000 nM.

In the case of `COCCNCc1ccc2oc(-c3cccc(-c4ccc(F)cc4-c4nncn4C)c3)nc2c1` [DZ-1, N-((2-(4′-Fluoro-2′-(4-methyl-4H-1,2,4-triazol-3-yl)-[1,1′-biphenyl]-3-yl)benzo[d]oxazol-5-yl)methyl)-2-methoxyethan-1-amine], the IC50 in assay [1] and in assay [3] was 200 to 1000 nM throughout. The EC50 in assay [2] was in the range of 1000 to 10000 nM.

Take `C[C@H](N[C@@H]1CCC[C@@H]1O)c1cc(C(F)(F)F)c2oc(-c3cccc(-c4ccc(F)cc4-c4nncn4C)c3)nc2c1` [EA-1, (1S,2R)-2-(((S)-1-(2-(4′-Fluoro-2′-(4-methyl-4H-1,2,4-triazol-3-yl)-[1,1′-biphenyl]-3-yl)-7-(trifluoromethyl)benzo[d]oxazol-5-yl)ethyl)amino)cyclopentan-1-ol]: the IC50 in assay [1] and in assay [3] was less than 200 nM throughout. In addition, in assay [2], the concentration giving a half-maximal response (EC50) is less than 200 nM.

Consider `C[C@@H](N[C@@H]1CCC[C@@H]1O)c1cc(C(F)(F)F)c2oc(-c3cccc(-c4ccc(F)cc4-c4nncn4C)c3)nc2c1` [EA-2, (1S,2R)-2-(((R)-1-(2-(4′-Fluoro-2′-(4-methyl-4H-1,2,4-triazol-3-yl)-[1,1′-biphenyl]-3-yl)-7-(trifluoromethyl)benzo[d]oxazol-5-yl)ethyl)amino)cyclopentan-1-ol], for which the IC50 in assay [1] and in assay [3] was less than 200 nM throughout. Also, the EC50 in assay [2] is less than 200 nM.

Regarding `Cn1cnnc1-c1cc(F)ccc1-c1cccc(-c2nc3cc(CN)cc(C(F)(F)F)c3o2)c1` [EB-1, (2-(4′-Fluoro-2′-(4-methyl-4H-1,2,4-triazol-3-yl)-[1,1′-biphenyl]-3-yl)-7-(trifluoromethyl)benzo[d]oxazol-5-yl)methanamine], the IC50 was less than 200 nM in assay [1] and 200 to 1000 nM in assay [3]. The EC50 in assay [2] lay within 1000 to 10000 nM.
